Results reported in patent publication US10874631B2, “Altertoxin II as a selective inhibitor of Ewing family of tumor cells” (priority 2016, dated 2020).

Experiments:
A204 = assay: SRB assay, growth inhibition; assay type: cell-based; conditions: A204, RMS
Protocol: (§1) FIG. 3A-3B. (A) The effects of altertoxin II were evaluated using the SRB assay in 6 Ewing sarcoma cell lines as compared to 4 other pediatric solid tumor cells lines. n≥3 independent experiments. (B) The effects of altertoxin II were evaluated by the Houghton laboratory using the alamar blue assay in an additional 6 Ewing sarcoma cell lines and potency compared to the activities in 5 rhabdomyosarcoma cell lines. n=3 independent experiments.
(§2) The effects of altertoxin II were studied in a larger panel of cell lines and the GI50, the concentration that causes 50% inhibition of cell growth, and the TGI, the concentration that caused total growth inhibition, were determined using the sulforhodamine b (SRB assay). The mean GI50 values shown graphically in FIG. 3A. The IC50, the concentration that causes 50% inhibition of cell proliferation, values were determined in a second panel of Ewing sarcoma and rhabdomyosarcoma cell lines using the altar blue assay and these values are presented in Table 2 and the mean in […].

A673 = assay: SRB assay, growth inhibition; assay type: cell-based; conditions: A673, EWS
Protocol: as §1, §2

D283 = assay: SRB assay, growth inhibition; assay type: cell-based; conditions: D283, Med
Protocol: as §1, §2

RD-ES = assay: SRB assay, growth inhibition; assay type: cell-based; conditions: EWS
Protocol: as §1, §2

SH-SY-5Y = assay: SRB assay, growth inhibition; assay type: cell-based; conditions: NB
Protocol: as §1, §2

SK-ES-1 = assay: SRB assay, growth inhibition; assay type: cell-based
Protocol: as §1, §2

SK-N-BE2 = assay: SRB assay, growth inhibition; assay type: cell-based
Protocol: as §1, §2

Ewing sarcoma cells = assay: Panel of 5 pediatric cancer cell lines, selective cytotoxicity; assay type: cell-based; conditions: 5 types of solid pediatric cancers
Ewing sarcoma cell lines [1] = assay: SRB assay panel, selectivity Ewing sarcoma vs other pediatric solid tumor cell lines; assay type: cell-based; conditions: mean GI50, 6 Ewing sarcoma cell lines
Protocol: as §1, §2

Ewing sarcoma cell lines [2] = assay: alamar blue panel, selectivity Ewing sarcoma vs rhabdomyosarcoma cell lines; assay type: cell-based; conditions: alamar blue assay, mean IC50; 6 Ewing sarcoma vs 6 rhabdomyosarcoma cell lines
Protocol: FIG. 3A-3B. (A) The effects of altertoxin II were evaluated using the SRB assay in 6 Ewing sarcoma cell lines as compared to 4 other pediatric solid tumor cells lines. n≥3 independent experiments. […]
as §2

[3] = system: A204 rhabdomyosarcoma cells; assay: PARP cleavage immunoblot (apoptosis); assay type: cell-based; conditions: 100 nM and 1 μM, 18 hours
Protocol: (§3) FIG. 4A-4B. Altertoxin II selectively induces PARP cleavage in EWS cell lines. Immunoblotting for total and cleaved PARP. (A) Two Ewing sarcoma (EWS) cell lines, RD-ES and SK-ES-1, were treated with 100 nM altertoxin II (ATX) for the indicated amounts of time. Whole-cell lysates were prepared and separated by SDS-PAGE. (B) The EWS cell line SK-ES-1 and rhabdomysosarcoma cell line A204 were treated with the indicated concentrations of ATX for 18 hours, lysed and separated by SDS-PAGE.
(§4) The ability of altertoxin II to initiate cell death via apoptosis, as measured by PARP cleavage, was evaluated in two Ewing sarcoma cells lines, SK-ES-1 and RD-ES. […] A range of altertoxin II concentrations when then evaluated in SK-ES-1 Ewing sarcoma cells as compared to A204 rhabdomyosarcoma cells.

RD-ES cells [4] = assay: PARP cleavage immunoblot (apoptosis); assay type: cell-based; conditions: 100 nM
Protocol: as §3, §4

SK-ES-1 cells = assay: PARP cleavage immunoblot (apoptosis); assay type: cell-based
Protocol: as §3, §4

RD-ES cells [5] = assay: G1 arrest with CDK4/6 inhibitor and SRB concentration-response; assay type: cell-based; conditions: RD-ES pre-treated with LSN2813542 (100 nM); SRB assay
Protocol: FIG. 6. Concentration-response curves for altertoxin II (ATX) with and without pre-treatment with the CDK4/6 inhibitor LSN2813542 (100 nM) using the SRB assay, n=3.
An experiment was designed to evaluate whether the effects of altertoxin II in Ewing sarcoma cells required cell cycle transition. RD-ES cells were arrested in the G1 phase of the cell cycle using the CDK4/6 inhibitor LSN2813542. LSN2813542 (100 nM) had no effect on RD-ES cell viability, but caused greater than 85% of the cells to arrest in G1 for at least 48 h. The arrested cells were then treated with altertoxin II and a concentration-response curve generated.

A673 Ewing sarcoma cells = assay: DNA damage response immunoblot (Chk1, Chk2); assay type: cell-based; conditions: 10-300 nM, within 6 h
Protocol: FIG. 9A-9B. Altertoxin II causes phosphorylation of CHK1 and 2 and p53 in Ewing sarcoma cells. Ewing sarcoma cells, A673, RD-ES, SK-ES-1, or rhabdomyosarcoma A204 cells were treated with altertoxin II at the concentrations indicated for 6 h (A) or 24 h (B) and whole-cell lysates prepared and proteins separated by SDS-PAGE. These samples were analyzed by immunoblotting for total and phosphorylated Chk1 and 2 and p53 (A).
Downstream activation of DNA damage response proteins by altertoxin II was subsequently evaluated.

[6] = system: HepG2 hepatocellular carcinoma cells; assay: Altertoxin II concentration in cell media by LC/MS; assay type: in vitro ADME; conditions: after 2 h
Protocol: (§5) An experiment was conducted to test this possibility. TC-32 Ewing sarcoma and Rh30 rhabdomyosarcoma cells were treated with 100 nM ATX for 6 h and the conditioned media was then applied to the resistant Rh30 cells. […] Differences in the altertoxin II concentration were measured by LC/MS in media from TC-32 and HepG2 hepatocellular carcinoma cells.

TC-32 cells = assay: Altertoxin II concentration in cell media by LC/MS; assay type: in vitro ADME; conditions: TC-32 media, after 2 h
Protocol: as §5

[7] = system: A673 Ewing sarcoma murine xenograft; assay: A673 xenograft antitumor efficacy; assay type: in vivo, Mice
Protocol: FIG. 11. Antitumor efficacy of ATXII against A673 xenograft model. Mice were injected i.p. with 20 mg/kg. ATXII on days 1, 3, 5, 8, 10 and 12, or 40 mg/kg on days 1, 3, and 5.
Studies were conducted to evaluate the in vivo efficacy of altertoxin II in an A673 Ewing sarcoma murine xenograft model (FIG. 11). Mice bearing A673 xenograft tumors were treated with 20 mg/kg altertoxin II on days 1, 3, 5, 8 and 10, or with 40 mg/kg altertoxin II on days 1, 3 and 5.

SMILES: O=C1CC[C@]2(O)c3c(ccc(O)c31)-c1ccc(O)c3c1[C@H]2[C@H]1O[C@H]1C3=O [altertoxin II]
- TGI (A204): 1.5 µM
- GI50 (A204; Homo sapiens): 0.96 µM
- TGI (A673): 0.139 µM
- GI50 (A673; Homo sapiens): 0.028 µM
- GI50 (D283): 0.94 µM
- TGI (D283): 1.7 µM
- GI50 (RD-ES; n ≥ 3): 0.014 µM
- TGI (RD-ES; total growth inhibitory concentration): 0.06 µM
- GI50 (SH-SY-5Y; Homo sapiens, SH-SY5Y): 0.56 µM
- TGI (SH-SY-5Y): 0.92 µM
- GI50 (SK-ES-1; Homo sapiens, SK-ES1, SK-ES-1, EWS): 0.035 µM
- TGI (SK-ES-1; SK-ES-1, EWS): 0.151 µM
- GI50 (SK-N-BE2; Homo sapiens, SKNBE2, SK-N-BE2, NB): 1 µM
- TGI (SK-N-BE2; SK-N-BE2, NB): 2 µM
- selective cytotoxic activity against Ewing sarcoma cells (Ewing sarcoma cells): potent, Ewing sarcoma-specific effects
- selectivity of Ewing sarcoma cell lines vs other pediatric solid tumor cell lines (Ewing sarcoma cell lines [1]): 58 fold
- selectivity of Ewing sarcoma cell lines vs rhabdomyosarcoma cell lines (Ewing sarcoma cell lines [2]): 89 fold
- apoptosis (PARP cleavage) [3]: not the rhabdomyosarcoma cells
- time to appearance of cleaved PARP (RD-ES cells [4]): ≤ 17 h
- apoptosis (PARP cleavage) (SK-ES-1 cells; 100 nM and 1 μM, 18 hours): cause apoptosis
- time to appearance of cleaved PARP (SK-ES-1 cells; 100 nM, seen at 7 and 17 hours): ≤ 7 h
- increase in total growth inhibition concentration (TGI) after G1 arrest (RD-ES cells [5]): 28 fold
- phosphorylation of Chk1 and Chk2 (A673 Ewing sarcoma cells): caused phosphorylation of checkpoint kinase 1 and 2
- altertoxin II remaining in media [6]: no altertoxin II was detectable
- altertoxin II remaining in media (TC-32 cells): approximately 25%
- tumor growth ([7]; 20 mg/kg i.p. days 1, 3, 5, 8 and 10): trend of modest tumor growth inhibition
- tumor volume vs control on day 14 ([7]; 20 mg/kg, day 14): no statistically significant difference
- tumor growth ([7]; 40 mg/kg i.p. days 1, 3 and 5, 14-day trial): significant inhibition of tumor growth
- tumor size vs control on day 14 ([7]; 40 mg/kg, day 14, p=0.0001): significantly smaller than control tumors
- therapeutic window ([7]; A673 xenograft): acceptable therapeutic window
